Experimental data as given in US5264423A, “Inhibitors for replication of retroviruses and for the expression of oncogene products” (The United States of America as represented by the …, priority 1992, dated 1993).
“Also recorded” adds a separate entry of the source.

Tests used:
[1] = system: HIV (HTLV-IIIB) in ATH8 cells; experiment: HIV cytopathic effect inhibition (viable ATH8 cells, trypan blue)
Procedure: FIGS. 1A-1D and Table 1, The target cells (2×10^5 ATH8 cells) in each tube were pretreated with the stated concentration of each oligomer for 16 hours and then incubated with Polybrene for 45 minutes. After centrifugation, each set of pelleted cells was exposed to HIV (500 virions per cell, which is a much higher dose than the minimal cytopathic dose) and incubated for one hour. Complete media (2 ml RPMI1640) supplemented with L-glutamine (4 mti), 2-mercaptoethanol ([…]), penicillin (50 unit/ml), and streptomycin (50 micrograms/ml), and containing 15% fetal calf serum and IL-2 (15% of conventional IL-2 from Advanced Biotechnologies, Inc., Silver Spring, MD, plus 20 unit/ml of recombinant IL-2 from Amgen Biochemicals, Thousand Oaks, CA) with the various concentrations of oligomers added. The number of viable cells were counted in a hemocytometer using the trypan blue exclusion method for day 7 following exposure to the virus. Filled columns represent non-virus exposed cells, and dotted columns represent virus exposed cells.
The HIV cytopathic effect inhibition with oligodeoxynucleotides was performed with 18 hours of pretreatment of 2×10^5 target cells (ATH8 cells) with oligos prior to exposure to HTLV-IIIB. After this pretreatment, target cells were treated with Polybrene (2 micrograms/ml) for one hour. The target cells were then, respectively, exposed to HTLV-IIIB virus (generally 500 virions per cell in this series of experiments) for one hour. The 2×10^5 cells were then diluted to 2 ml with complete media containing IL-2 and various concentrations of oligos.
The number of viable cells was counted in a hemocytometer using the trypan blue exclusion method on day 7 following exposure to the virus. Each set of data were obtained from simultaneously performed experiments so as to make a precise comparison among agents tested.
The target cells (2×10^5 ATH8 cells per tube) were preincubated with the stated concentrations of S-dC14 for 24 hours and pretreated with 2 micrograms/ml of Polybrene for 45 minutes. After centrifugation, pelleted cells were exposed to the HIV (1000 virions per cell) for one hour. The cells were incubated in 2 ml of complete media containing IL-2, and the viable cells were counted on day 13.
On day 13 after the exposure to the virus, viable cells were counted by the trypan blue dye exclusion method.

[2] = system: HIV p24 gag protein in chronically HIV-infected H9 cells; experiment: HIV gag protein expression in chronically HIV-infected H9 cells, indirect immunofluorescence; assay type: cell-based
Procedure: The percentage of cells expressing p24 gag protein of HIV was determined by indirect immunofluorescence microscopy by using anti-HIV p24 murine monoclonal antibody.
Generally, it has been assumed that anti-sense sequences inhibit the expression of various genes by translation arrest, i.e. that they bind to MRNA and block its translation. In order to test this possibility, gag protein synthesis was analyzed in chronically HIV-infected and -producing H9 cells by indirect immunofluorescent assay under a microscope. […] Alternatively, the level of any translation arrest could have been below the threshold of detection by indirect immunofluorescent assay under a microscope. […] Therefore, one mechanism for the antiviral effect could depend on blocking viral replication perhaps prior to, or at the stage of, pro-viral DNA synthesis.

[3] = system: de novo HIV DNA synthesis in ATH8 cells; experiment: Southern blot of de novo HIV DNA synthesis; assay type: cell-based; settings: days 4 and 7
Excerpt: Target cells (1×10^7 ATH8 cells) were pretreated with or without S-dC28 at various concentrations for sixteen hours, then treated with Polynrene, exposed to HIV (500 virus particles per cell), resuspended, and cultured in the presence or absence of S-dC28. On days 4 and 7 following the exposure to the virus, high molecular weight DNA was extracted, digested with Asp718 (a Kpn I isoschizomer from Boehringer-tiannheim, Indianapolis, IN), and subjected to Southern blot analysis hybridized with a labelled insert of molecular clone of the env region of HTLV-III (BH10) containing a 1.3 Kb Bgl II fragment.
FIGS. 6A-6D show the inhibitor effect of the phosphorothioate oligodeoxycytidine analog (S-dC28) on de novo HIV DNA synthesis in target cells. On days 4 and 7 following the exposure to the virus, a substantial amount of viral DNA was detected by Southern blot analysis without antiviral agents.
On day 4, shown in lanes A-E, and day 7, shown in lanes F-J, following exposure to the virus, high molecular weight DNA was extracted. Lanes A and F contain DNA from ATH8 cells that were exposed to the virus and not protected by S-dC28. Lanes B and G, C and H, D and I, contain DNA from ATH8 cells pretreated and cultured with 1 micromole, 5 micromoles, and 7 micromoles S-dC28, respectively. Lanes E and J contain DNA from ATH8 cells treated with 50 micromoles 2', 3'-dideoxyadenonsine, and lane K contains DNA from ATH8 cells that was not exposed to the virus.

[4] = system: endonuclease S1; experiment: Nuclease susceptibility, S1 nuclease; assay type: in vitro ADME
Excerpt: (§1) Several oligodeoxynucleotides were studied with regard to DNase sensitivity, cf. Table 5. These include cytidine homopolymers, ODN-4 (an anti-message 28-mer complementary to the 3' region of the art/trs region of HIV BH10 clone), and myc-1 (a 15-mer complementary to the initiation codon region of the C-myc oncogene). The DNases employed were predominantly endonuclease S1, the exo- and endonuclease P1, and snake venom (SV) phosphodiesterase. The concentration of S1 nuclease was ten-fold higher (100 micromoles/ml) for reactions of oligo-dc, since both the normal and PS analog were degraded extremely slowly be this enzyme. S1 and P1 nuclease digestion proceeded at 2-45 times more slowly for the S-ODNs than for the normal oligomers, with the […] being somewhat more readily digested than the 28-mer.

[5] = system: exo- and endonuclease P1; experiment: Nuclease susceptibility, P1 nuclease; assay type: in vitro ADME
Excerpt: as §1

[6] = system: snake venom (SV) phosphodiesterase; experiment: Nuclease susceptibility, snake venom phosphodiesterase; assay type: in vitro ADME
Excerpt: as §1

[7] = system: T4 molecule in T4 cells (H9 cells); experiment: Specific binding of radiolabelled HIV to T4 molecule
Procedure: (§2) The possibility that the S-ODN analogs may interfere with HIV binding to target cells was tested.

[8] = system: T4, HLA-DR, T8, T3, or Tac antigen on the cell surface of ATH8 cells; experiment: Cell surface antigens by fluorescent-activated cytofluorometry; assay type: cell-based; settings: 1 micromole (printed i), sixteen hours
Procedure: as §2

[9] = system: ATH8 cells (printed AT[18); experiment: Cell uptake of 35S-phosphorothioate end-labelled oligomer, ATH8 cells; assay type: in vitro ADME; settings: within several minutes
Excerpt: (§3) Phosphatase-resistant 35S-phosphorothioate end-labelled S-dC28 was employed to investigate the permeability of target cells.

[10] = system: H9 cells; experiment: Cell uptake of 35S-phosphorothioate end-labelled oligomer, H9 cells; assay type: in vitro ADME; settings: within several minutes
Excerpt: as §3

[11] = Solubility; assay type: physicochemical; settings: acetate salts
Excerpt: The phosphorothioate oligodeoxynucleotides of the present invention have suitable chemical characteristics, namely, the ability to hybridize with complementary DNA/MRNA under physiological conditions, and better solubility properties relative to methylphosphonates. Moreover, the thioesters are as soluble in biological media as the parent compounds.
Oligodeoxynucleotides with blocks of phosphorothioates at the 3' or 5' ends were synthesized by automatically changing the oxidation cycle at the required point. […] Introduction of a small amount of ammonia vapor, not aqueous ammonia, by a Pasteur PiPette solubilized all the solids. The yield determined from absorbance at lambda max was about 30%.

[12] = system: HL60 cells; experiment: HL60 cell growth (cell count); assay type: cell-based
[13] = system: HL60 cells; experiment: DNA synthesis (3H-thymidine incorporation) in HL60 cells; assay type: cell-based; settings: 50 uM, day 1
Procedure: To obtain the results shown in FIG. 4, nonsense or antisense S-ODNs were added at a final concentration of 50 uM on day 0 to cells seeded at 3×10^5/ml. DNA synthesis was determined on day 1 by incubating cells with 1 uCi 3H-thymidine for 4 hours, after which time 10% trichloroacetic acid was added and acid precipitatable radioactivity was trapped on Sihatman glass fiber filters. The filters were subjected to liquid scintillation counting to determine levels of radioactivity.

[14] = system: c-myc protein in HL60 cells; experiment: c-myc protein reduction; assay type: cell-based

(dC)n n = 28 [S-dC28]
protection against the virus / antiviral activity ([1]; 0.5 micromoles): complete protection against the virus; also recorded: complete antiviral activity; also recorded: potent antiHIV activity
inhibition of viral replication and protection of ATH8 cells from HIV ([1]; 3 micromoles, day 7): 100%
in vitro therapeutic index (ratio of cytotoxic to effective concentration) ([1]; compared with dideoxycytidine and dideoxyadenosine): comparable in vitro index to those of dideoxycytidine and dideoxyadenosine
anti-HIV activity (cytopathic effect) ([1]; in words): most consistent and durable antiviral effects
Percentage of gag positive cells ([2]; 5 micro M, 8 hours in culture): 82%
Percentage of gag positive cells ([2]; 5 micro M, 24 hours in culture): 91%
Percentage of gag positive cells ([2]; 5 micro M, 72 hours in culture): 85%
Percentage of gag positive cells ([2]; 5 micro M, 120 hours in culture): 79%
Percentage of gag positive cells ([2]; 10 micro M, 8 hours in culture): 74%
Percentage of gag positive cells ([2]; 10 micro M, 24 hours in culture): 80%
Percentage of gag positive cells ([2]; 10 micro M, 72 hours in culture): 71%
Percentage of gag positive cells ([2]; 10 micro M, 120 hours in culture): 82%
Percentage of gag positive cells ([2]; 25 micro M, 8 hours in culture): 69%
Percentage of gag positive cells ([2]; 25 micro M, 24 hours in culture): 86%
Percentage of gag positive cells ([2]; 25 micro M, 72 hours in culture): 75%
Percentage of gag positive cells ([2]; 25 micro M, 120 hours in culture): 74%
gag protein positivity ([2]; concentrations as high as 25 micromoles, 120 hours): failed to reduce gag protein positivity; also recorded: did not inhibit gag protein positivity
2.7 Kb env-containing KPN I viral DNA fragment detection ([3]; 1, 5 and 7 micromoles, lanes B-D, G-I): detected only in lanes A and F
inhibition of de novo synthesis of viral DNA ([3]; concentrations as low as / down to 1 micromolar): significantly inhibited the de novo synthesis of viral DNA; also recorded: complete inhibition
Ratio = t1/2 PSoligo/t1/2 POoligo [4]: 2
Ratio = t1/2 PSoligo/t1/2 POoligo [5]: 15
Nuclease susceptibility, t1/2 [6]: > 27.7778 h
Ratio = t1/2 PSoligo/t1/2 POoligo [6]: > 1400
inhibition of specific binding of labelled virus to T4 [7]: No inhibition
changes in T4, HLA-DR, T8, T3, or Tac antigen [8]: no detectable changes
uptake (increase of radioactivity) [9]: Significant increases of radioactivity
uptake (increase of radioactivity) [10]: Significant increases of radioactivity
solubility in 1 M NaCl [11]: extremely insoluble in 1 M NaCl

dAACGTTGAGGGGCAT [S-myc-1]
concentration relative to that required for the normal oligomer [12]: less than 1%
duration of antiproliferative effects [12]: up to three days
growth inhibition of HL60 cells at 0.1 micro M ([12]; 0.1 micro M): effective
effect on HL60 cell proliferation ([12]; in words): significant inhibition of cell proliferation
inhibition of DNA synthesis (3H-thymidine incorporation) [13]: significant inhibition
Nuclease susceptibility, t1/2 [4]: 5.5 min
Ratio = t1/2 PSoligo/t1/2 POoligo [4]: 9
Ratio = t1/2 PSoligo/t1/2 POoligo [5]: 4
Ratio = t1/2 PSoligo/t1/2 POoligo [6]: 443
reduction of c-myc protein [14]: reduction of c-myc protein
